Results from US20250066377A1, “AMINO CHROMEN-2-ONE MODULATORS OF POLRMT” (Pretzel Therapeutics, Inc., priority 2021, published 2025).
pIC50: −log10 of the molar value.

Target: POLRMT (Homo sapiens (Human), UniProt O00411)
Experiment: POLRMT homogeneous TR-FRET mitochondrial transcription assay
Type: biochemical
Settings: inhibition of POLRMT; TR-FRET detection of 407 bp RNA transcript; 7.5 nM POLRMT, 15 nM TFB2M, 30 nM TFAM, 60 minutes at 37° C.
Description: The inhibitory activity of the compounds of the present invention against POLRMT were determined by assays based on Bergbrede, T., et al., “An adaptable high-throughput technology enabling the identification of specific transcription modulators,” SLAC Discov., 22, 378-386 (2017).
The ability of some compounds of the present invention to inhibit POLRMT were determined in a homogeneous TR-FRET Assay using high-throughput screening in a 384-well plate format. This method is used to monitor the activity of mitochondrial transcription through measurement of its product, a 407 bp long RNA transcript. Detection of the product is facilitated by hybridization of two DNA-oligonucleotide probes to specific and adjacent sequences within the RNA product sequence. Upon annealing of the probes, two fluorophores are coupled directly to an acceptor nucleotide probe (ATTO647, 5′), or introduced via a coupled streptavidin with a biotinylated donor nucleotide probe (Europium cryptate) that is brought into sufficient proximity to serve as a fluorescence-donor-acceptor pair. Thus, a FRET signal at 665 nm is generated upon excitation at 340 nm.
Proteins used as transcription factors (POLRMT: NP_005026.3, TFAM: NP_003192.1, TFB2M: NP_071761.1) are diluted from their stocks to working concentrations of 1 μM, 20 μM and 4 μM respectively, in a dilution buffer containing 20 mM Tris-HCl (pH 8.0), 200 mM NaCl, 10% (v/v) glycerol, 1 mM Dithiothreitol (DTT), 0.5 mM EDTA.
DNA template is a pUC18 plasmid with the mitochondrial light strand promotor sequence (1-477) cloned between HindIII and BamHI sites. The DNA template is restriction linearized proximal to the promotor 3′-end (pUC-LSP).
The reaction mixture (10 uL) containing 7.5 nM POLRMT, 15 nM of TFB2M, 30 nM of TFAM, 0.5 nM of DNA template and 500 μM nucleotide triphosphate mix (NTPs) in a reaction buffer (containing 10 mM Tris-HCl (pH 7.5), 10 mM MgCl2, 40 mM NaCl, 10 mM DTT, 0.005% (w/v) Tween-20, 160 units/ml Rnase inhibitor and 0.1 mg/mL BSA) are dispensed to compounds in microplates, using a Thermo Multidrop® dispenser, and incubated at 37° C. in a VWR INCU-Line incubator for 60 minutes after mixing. No nucleotide triphosphate mix is added to negative control samples. Microplates with compounds to be tested in the assay are prepared from 10 mM compound stocks in 100% DMSO, equal amounts of DMSO without any compound are added to positive control and negative control samples.
During the incubation, a mix of the detection reagents is prepared in a buffer such that the enzymatic reaction is terminated due to chelating of Mg-ions and increased ionic strength, containing 50 mM Tris-HCl (pH 7.5), 700 mM NaCl, 20 mM EDTA, and 0.01% (w/v) Tween-20. Europium-streptavidin is pre-incubated with a 200-fold molar excess of a random sequence oligonucleotide to block unspecific binding of oligo, for two hours at ambient temperature in the dark. Afterwards, the blocked Europium-streptavidin is kept on ice until use.
At the end of the enzymatic reaction time, 5 μL detection oligo mix in the detection buffer is added, and assay plates are mixed and kept at ambient temperature for one hour, protected from light. The concentration of the Acceptor nucleotide oligo (e.g., ATTO647N-5′-[…]-3′) and Donor nucleotide oligo (e.g., bio-5′-AACACATCTCT(-bio)GCCAAACCCCA-bio-3′) in each assay well is 1 nM, and 3 nM, respectively.
After incubation with oligo mix, 5 μL of pre-blocked Europium-streptavidin reagent is dispensed to each assay well, assay plates are again mixed and kept at ambient temperature for one hour, protected from light.
The generated signal is measured with BMG Pherastar microtiter plate reader with a TRF light unit, using excitation at 340 nm, an integration time of 200 μs, and a delay time of 100 μs, before detection at 620 nm and 665 nm. The ratio of donor- and acceptor-fluorescence is used as a measure of the generated transcript product (i.e. enzymatic activity).

Chain of POLRMT (O00411 42-1230): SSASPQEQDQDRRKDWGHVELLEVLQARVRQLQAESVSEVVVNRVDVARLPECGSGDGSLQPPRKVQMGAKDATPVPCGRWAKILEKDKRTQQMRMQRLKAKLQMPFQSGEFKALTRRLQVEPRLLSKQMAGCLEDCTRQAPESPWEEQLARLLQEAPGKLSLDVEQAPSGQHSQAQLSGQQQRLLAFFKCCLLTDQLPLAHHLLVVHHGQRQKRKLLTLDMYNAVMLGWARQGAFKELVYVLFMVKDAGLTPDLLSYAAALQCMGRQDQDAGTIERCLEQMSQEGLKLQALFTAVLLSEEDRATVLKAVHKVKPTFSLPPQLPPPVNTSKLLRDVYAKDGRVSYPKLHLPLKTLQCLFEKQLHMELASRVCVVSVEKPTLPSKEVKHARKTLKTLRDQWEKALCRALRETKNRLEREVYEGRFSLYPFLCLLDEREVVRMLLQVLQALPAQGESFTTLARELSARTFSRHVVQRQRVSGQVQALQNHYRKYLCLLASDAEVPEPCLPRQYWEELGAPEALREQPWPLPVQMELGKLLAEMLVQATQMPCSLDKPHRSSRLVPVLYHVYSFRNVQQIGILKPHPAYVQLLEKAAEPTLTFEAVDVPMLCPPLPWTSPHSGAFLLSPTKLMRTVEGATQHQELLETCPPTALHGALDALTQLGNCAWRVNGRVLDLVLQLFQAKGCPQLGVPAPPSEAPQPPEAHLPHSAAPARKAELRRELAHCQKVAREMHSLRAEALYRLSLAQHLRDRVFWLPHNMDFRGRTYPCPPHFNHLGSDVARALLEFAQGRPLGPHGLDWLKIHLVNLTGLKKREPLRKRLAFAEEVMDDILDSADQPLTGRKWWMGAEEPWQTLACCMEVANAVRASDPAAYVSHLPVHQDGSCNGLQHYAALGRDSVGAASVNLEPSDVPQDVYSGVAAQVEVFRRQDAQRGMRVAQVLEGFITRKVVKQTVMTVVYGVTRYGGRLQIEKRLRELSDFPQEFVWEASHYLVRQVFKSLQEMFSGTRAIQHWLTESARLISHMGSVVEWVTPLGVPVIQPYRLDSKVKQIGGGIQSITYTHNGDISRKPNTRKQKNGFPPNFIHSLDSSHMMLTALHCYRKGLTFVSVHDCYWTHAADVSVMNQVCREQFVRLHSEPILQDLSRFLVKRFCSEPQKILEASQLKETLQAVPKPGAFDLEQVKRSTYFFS

**Q.** `Cc1ccccc1-c1cc(=O)oc2nc(N3CCN(C)CC3)ccc12` [Example 09, 7-(4-methylpiperazin-1-yl)-4-(o-tolyl)pyrano[2,3-b]pyridin-2-one] was tested. Which pIC50 did it give?
**A.** < 4.00

**Q.** `Cc1ccccc1-c1cc(=O)oc2nc(N3CC4(COC4)C3)ccc12` [Example 10, 7-(2-oxa-6-azaspiro[3.3]heptan-6-yl)-4-(o-tolyl)-2H-pyrano[2,3-b]pyridin-2-one] was tested. Which pIC50 did it give?
**A.** 4.07

**Q.** How did the pIC50 turn out when `Cc1ccccc1-c1cc(=O)oc2nc(N3CCN(C)C(=O)C3)ccc12` [Example 11, 7-(4-methyl-3-oxopiperazin-1-yl)-4-(o-tolyl)-2H-pyrano[2,3-b]pyridin-2-one] was run?
**A.** 4.33

**Q.** With `Cc1ccccc1-c1cc(=O)oc2nc(N3CCC(F)(F)C3)ccc12` [Example 17, 7-(3,3-difluoropyrrolidin-1-yl)-4-(o-tolyl)-2H-pyrano[2,3-b]pyridin-2-one] as the compound, how does the pIC50 read?
**A.** 6.22

**Q.** `Cc1ccccc1-c1cc(=O)oc2nc(N3CCC(F)C3)ccc12` (stereo not shown) [Example 18, 7-(3-fluoropyrrolidin-1-yl)-4-(o-tolyl)-2H-pyrano[2,3-b]pyridin-2-one] was tested. Which pIC50 did it give?
**A.** 6.00

**Q.** With `Cc1ccccc1-c1cc(=O)oc2nc(N3CCC3)ccc12` [Example 19, 7-(azetidin-1-yl)-4-(o-tolyl)-2H-pyrano[2,3-b]pyridin-2-one] as the compound, how does the pIC50 read?
**A.** 6.52

**Q.** With `COC1CN(c2ccc3c(-c4ccccc4C)cc(=O)oc3n2)C1` [Example 20, 7-(3-methoxyazetidin-1-yl)-4-(o-tolyl)-2H-pyrano[2,3-b]pyridin-2-one] as the compound, how does the pIC50 read?
**A.** 5.70

**Q.** How did the pIC50 turn out when `O=c1cc(-c2ccc(F)cc2Cl)c2ccc(N3CCOCC3)nc2o1` [Example 21, 4-(2-chloro-4-fluorophenyl)-7-morpholino-2H-pyrano[2,3-b]pyridin-2-one] was run?
**A.** 5.52

**Q.** How did the pIC50 turn out when `CC(=O)NC1CCN(c2ccc3c(-c4ccccc4C)cc(=O)oc3n2)C1` (stereo not shown) [Example 22, N-(1-(2-oxo-4-(o-tolyl)-2H-pyrano[2,3-b]pyridin-7-yl)pyrrolidin-3-yl)acetamide] was run?
**A.** 5.52

**Q.** How did the pIC50 turn out when `COC(=O)CN(C)c1ccc2c(-c3ccccc3C)cc(=O)oc2n1` [Example 35, methyl N-methyl-N-(2-oxo-4-(o-tolyl)-2H-pyrano[2,3-b]pyridin-7-yl)glycinate] was run?
**A.** 6.70

**Q.** How did the pIC50 turn out when `Cc1ccccc1-c1cc(=O)oc2nc(N(C)CC(=O)O)ccc12` [Example 36, N-methyl-N-(2-oxo-4-(o-tolyl)-2H-pyrano[2,3-b]pyridin-7-yl)glycine] was run?
**A.** 6.00

**Q.** With `CNC(=O)CN(C)c1ccc2c(-c3ccccc3C)cc(=O)oc2n1` [Example 39, N-methyl-2-[methyl-[4-(o-tolyl)-2-oxo-pyrano[2,3-b]pyridin-7-yl]amino]acetamide] as the compound, how does the pIC50 read?
**A.** 6.00

**Q.** How did the pIC50 turn out when `Cc1ccccc1-c1cc(=O)oc2nc(N(C)CC(N)=O)ccc12` [Example 40, 2-[methyl-[4-(o-tolyl)-2-oxo-pyrano[2,3-b]pyridin-7-yl]amino]acetamide] was run?
**A.** 6.30

**Q.** `Cc1ccccc1-c1cc(=O)oc2nc(N(C)CCC(=O)O)ccc12` [Example 41, 3-[methyl-[4-(o-tolyl)-2-oxo-pyrano[2,3-b]pyridin-7-yl]amino]propanoic acid] was tested. Which pIC50 did it give?
**A.** 5.15

**Q.** How did the pIC50 turn out when `Cc1ccccc1-c1cc(=O)oc2nc(N(C)CCC(N)=O)ccc12` [Example 42] was run?
**A.** 5.52

**Q.** How did the pIC50 turn out when `CNC(=O)CCN(C)c1ccc2c(-c3ccccc3C)cc(=O)oc2n1` [Example 43] was run?
**A.** 5.15

**Q.** How did the pIC50 turn out when `CN(CC(=O)O)c1ccc2c(-c3ccc(F)cc3Cl)cc(=O)oc2n1` [Example 44, N-(4-(2-chloro-4-fluorophenyl)-2-oxo-2H-pyrano[2,3-b]pyridin-7-yl)-N-methylglycine] was run?
**A.** 5.30

**Q.** With `CNC(=O)CN(C)c1ccc2c(-c3ccc(F)cc3Cl)cc(=O)oc2n1` [Example 45, 2-((4-(2-chloro-4-fluorophenyl)-2-oxo-2H-pyrano[2,3-b]pyridin-7-yl)(methyl)amino)-N-methylacetamide] as the compound, how does the pIC50 read?
**A.** 6.00

**Q.** `CN(CC(N)=O)c1ccc2c(-c3ccc(F)cc3Cl)cc(=O)oc2n1` [Example 46, 2-((4-(2-chloro-4-fluorophenyl)-2-oxo-2H-pyrano[2,3-b]pyridin-7-yl)(methyl)amino)acetamide] was tested. Which pIC50 did it give?
**A.** 5.70

**Q.** `CNC(=O)CCN(C)c1ccc2c(-c3ccc(F)cc3Cl)cc(=O)oc2n1` [Example 47, 3-((4-(2-chloro-4-fluorophenyl)-2-oxo-2H-pyrano[2,3-b]pyridin-7-yl)(methyl)amino)-N-methylpropanamide] was tested. Which pIC50 did it give?
**A.** 4.24

**Q.** `Cc1cccc(C)c1-c1cc(=O)oc2nc(N3CCC[C@H]3C(=O)O)ccc12` [Example 50, (4-(2,6-dimethylphenyl)-2-oxo-2H-pyrano[2,3-b]pyridin-7-yl)-L-proline] was tested. Which pIC50 did it give?
**A.** 6.40

**Q.** How did the pIC50 turn out when `Cc1cccc(C)c1-c1cc(=O)oc2nc(N3CCC[C@@H]3C(=O)O)ccc12` [Example 51, (4-(2,6-dimethylphenyl)-2-oxo-2H-pyrano[2,3-b]pyridin-7-yl)-D-proline] was run?
**A.** 7.00

**Q.** How did the pIC50 turn out when `CN(CCC(N)=O)c1ccc2c(-c3ccc(F)cc3Cl)cc(=O)oc2n1` [Example 52, 3-((4-(2-chloro-4-fluorophenyl)-2-oxo-2H-pyrano[2,3-b]pyridin-7-yl)(methyl)amino)propanamide] was run?
**A.** 5.00

**Q.** `COC(=O)[C@H](C)N(C)c1ccc2c(-c3ccc(F)cc3Cl)cc(=O)oc2n1` [Example 53, methyl N-(4-(2-chloro-4-fluorophenyl)-2-oxo-2H-pyrano[2,3-b]pyridin-7-yl)-N-methyl-L-alaninate] was tested. Which pIC50 did it give?
**A.** 6.00

**Q.** `COC(=O)[C@@H](C)N(C)c1ccc2c(-c3ccc(F)cc3Cl)cc(=O)oc2n1` [Example 54, methyl N-(4-(2-chloro-4-fluorophenyl)-2-oxo-2H-pyrano[2,3-b]pyridin-7-yl)-N-methyl-D-alaninate] was tested. Which pIC50 did it give?
**A.** 6.70

**Q.** `CN(CCC(=O)O)c1ccc2c(-c3ccc(F)cc3Cl)cc(=O)oc2n1` [Example 55, 3-((4-(2-chloro-4-fluorophenyl)-2-oxo-2H-pyrano[2,3-b]pyridin-7-yl)(methyl)amino)propanoic acid] was tested. Which pIC50 did it give?
**A.** 4.92

**Q.** `Cc1cccc(C)c1-c1cc(=O)oc2nc(N(C)CC(N)=O)ccc12` [Example 56, 2-((4-(2,6-dimethylphenyl)-2-oxo-2H-pyrano[2,3-b]pyridin-7-yl)(methyl)amino)acetamide] was tested. Which pIC50 did it give?
**A.** 6.70

**Q.** `Cc1ccccc1-c1cc(=O)oc2nc(N(C)CC(=O)NCC(=O)O)ccc12` [Example 60, N-methyl-N-(2-oxo-4-(o-tolyl)-2H-pyrano[2,3-b]pyridin-7-yl)glycylglycine] was tested. Which pIC50 did it give?
**A.** 5.22
